Experiment [1] concerns the target T1, hSTING R232 c-terminal domain (Homo sapiens, UniProt Q86WV6, H232R).
T1 construct: Purified hSTING R232 (aa154-342)
Briefly: Thermal shift assay for measuring the relative binding affinity to hSTING R232 c-terminal domain. To be noted: purified hSTING R232 (aa154-342), SYPRO Orange, Tm minus mean Tm of negative control. On the procedure:
Thermal shift assay for measuring the relative binding affinity to hSTING R232 c-terminal domain.
From each of the 10 mM stock solutions of compounds in DMSO, dilutions are made to create samples with three concentrations 10 mM, 5 mM, and 2.5 mM. From these dilutions a final 50-fold dilution is made into assay buffer, giving concentrations of 200 μM, 100 μM, and 50 μM. From each of the buffer dilutions, 5 μL is added to the 384 well assay plate. A positive control is setup with cGAMP using the same dilution scheme as the ligands. A baseline thermal shift for the negative control is determined using buffer and 2% DMSO.
An aliquot of protein is thawed on ice and SYPRO orange reagent is brought to room temperature. The 5000×SYPRO orange stock is diluted in assay buffer to a concentration of 10×. Protein is diluted to a concentration of 10 μM in the prepared buffer/dye solution. Five micro-liters of protein/buffer/dye solution is added to each of the sample and control wells, and the plate is sealed with the provided films. The plate is centrifuged for 5 min at 20° C. at 1000 rpm.
On the Light Cycler instrument, measurements are made over a temperature gradient from 20° C. to 99° C. at 0.07° C./s and data acquisitions collected at a rate of 8/° C. are used to measure the change in fluorescence as a function of temperature. Data analysis is performed using the Roche Light Cycler Software to determine the melting temperature (Tm ° C.) of each sample. A mean Tm ° C. for the negative control is calculated and subtracted from each of the samples to generate the ΔTm ° C. values for each of the ligands.
The relative binding affinity to hSTING c-terminal domain of the compounds of the present invention was determined by the above assay, and ΔTm ° C. values are shown in the following Table 3.

For experiment [2], the target named is T2, STING in THP1-Dual KI-hSTING-R232 cells (Homo sapiens, UniProt Q86WV6, H232R).
T2 construct: host or cells: THP1-Dual KI-hSTING-R232 cells
T2 sequence (Q86WV6 whole entry H232R): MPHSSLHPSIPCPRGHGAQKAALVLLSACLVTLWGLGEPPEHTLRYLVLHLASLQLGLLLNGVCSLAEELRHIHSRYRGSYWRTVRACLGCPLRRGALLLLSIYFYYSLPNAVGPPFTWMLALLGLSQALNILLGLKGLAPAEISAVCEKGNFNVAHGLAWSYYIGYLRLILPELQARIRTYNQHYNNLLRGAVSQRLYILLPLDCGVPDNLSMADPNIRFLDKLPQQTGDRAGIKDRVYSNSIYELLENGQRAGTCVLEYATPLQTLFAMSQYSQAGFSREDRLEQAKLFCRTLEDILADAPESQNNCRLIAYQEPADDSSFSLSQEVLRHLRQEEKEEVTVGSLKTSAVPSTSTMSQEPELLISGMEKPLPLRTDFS
Briefly: Human THP1 reporter cell assay (IRF luciferase reporter). It is filed as cell-based. As to conditions: 24 hours incubation. The protocol: Test Example 2. Human THP1 Reporter Cell Assay
1. Human THP1-Dual KI-hSTING-R232 Cells (InvivoGen, Cat. #thpd-r232)
Activation of STING in THP1-Dual KI-hSTING-R232 cells was determined by measuring the luminescence signal resulting from the expression of the IRF luciferase reporter gene. All reagent preparation and assay procedures were conducted according to the protocols provided by InvivoGen. In brief, test compounds and cells (1×10^5 cells per well) were dispensed into 96-well plates with a final volume per well of 150 μl. Plates were incubated in a humidified, 5% CO2 incubator at 37° C. for 24 hours. The expression level of the reporter gene was measured by transferring 20 μl of the supernatant to a non-transparent 96-well plate to which 50 μl of QUANTI-LUC was dispensed into each well. The resulting luminescence signal was immediately read using a TECAN plate reader. The background luminescence signal from media was subtracted. The fold induction effect of the luminescence signal at each compound concentration was determined relative to controls that lack compound treatment. The plot of fold induction effect versus the log of compound concentration was fit in GraphPad Prism with a 4-parameter concentration response equation to calculate EC50 and Emax.
Activation of STING in THP1 of the compounds in the present invention was determined by the above assay, and EC50 values are shown in the following Table 4.
(A reporter such as luciferase makes a cellular process visible.)

The test system of experiment [3] is Human PBMC cells. Briefly: IFNβ secretion from human PBMC (ELISA). It is filed as cell-based. As to conditions: 5 hours incubation, IFNβ in supernatant by ELISA. The protocol: Test Example 3. IFNβ Secretion from Human PBMC
1. Human PBMC cells (STEMCELL Technologies)
Cryopreserved peripheral blood human mononuclear cells (PBMCs) were rapidly thawed and resuspended in Lymphocyte Media and centrifuged at 500×g for 5 minutes. The supernatant was removed and the cell pellets were gently resuspended in cell culture and compound dilution media. Then the cells were plated in a 96-well format at a concentration of 1.5×10^5 per well. The test compounds, at varying concentrations, or vehicle control (<0.3% DMSO) were mixed with the cells giving a final volume of 150 μl per well. The plates were incubated in a humidified, 5% CO2 incubator at 37° C. for 5 hours. After incubation, the human IFNβ in the supernatant and the IFNβ standard controls were measured using human IFNβ Quantikine ELISA kit according to the manufacturer's protocol. The absorbance at 450 nm was measured with Infinite M1000 plate reader and corrected by background reading at 540 nm of each well. The concentration of IFNβ secreted was calculated based on the standard curves. The plot of IFNβ concentration versus the log of compound concentration was fit in GraphPad Prism with a 4-parameter concentration response equation to calculate EC50 and Emax (see Table 5).
For orientation: In an ELISA, binding on a coated surface is turned into a signal by an enzyme label.

By ΔTm is commonly meant the change in melting temperature against a reference sample. In general, EC50 refers to the concentration that produces a half-maximal response.

Each structure is given as a SMILES string.

T1 sequence (Q86WV6 154-342 H232R): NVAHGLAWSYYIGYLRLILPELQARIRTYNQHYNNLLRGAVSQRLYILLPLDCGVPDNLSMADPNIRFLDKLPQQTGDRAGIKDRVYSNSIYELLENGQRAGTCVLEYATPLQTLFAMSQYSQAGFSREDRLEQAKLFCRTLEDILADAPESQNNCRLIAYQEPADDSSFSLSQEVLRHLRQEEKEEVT

For `CCn1nc(C)cc1C(=O)Nc1nc2cc(C(N)=O)cc3c2n1[C@@H](C/C=C/C[C@H]1COc2cc(C(N)=O)cc4nc(NC(=O)c5cc(C)nn5CC)n1c24)CO3` [Example 1, (3S,3″S)-3,3″-((E)-but-2-ene-1,4-diyl)bis(2-(1-ethyl-3-methyl-1H-pyrazole-5-carboxamido)-3,4-dihydro-5-oxa-1,2a-diazaacenaphthylene-7-carboxamide)], the ΔTm at 100 µM in experiment [1] was 14.6 °C. The values for the EC50 in experiment [2] and in experiment [3] were 200 nM and 0.22 µM, respectively.
Turning to `CCn1nc(C)cc1C(=O)Nc1nc2cc(C(N)=O)cc3c2n1[C@@H](C/C=C\C[C@H]1COc2cc(C(N)=O)cc4nc(NC(=O)c5cc(C)nn5CC)n1c24)CO3` [Example 2, (3S,3″S)-3,3″-((Z)-but-2-ene-1,4-diyl)bis(2-(1-ethyl-3-methyl-1H-pyrazole-5-carboxamido)-3,4-dihydro-5-oxa-1,2a-diazaacenaphthylene-7-carboxamide)], the thermal shift (ΔTm) at 100 µM in experiment [1] stood at 12.2 °C. In addition, the figures for the EC50 in experiment [2] and in experiment [3] were 6 nM and 0.026 µM, respectively.
With `CCn1nc(C)cc1C(=O)Nc1nc2cc(C(=O)O)cc3c2n1[C@@H](C/C=C/C[C@H]1COc2cc(C(=O)O)cc4nc(NC(=O)c5cc(C)nn5CC)n1c24)CO3` [Example 3, (3S,3″S)-3,3″-((E)-but-2-ene-1,4-diyl)bis(2-(1-ethyl-3-methyl-1H-pyrazole-5-carboxamido)-3,4-dihydro-5-oxa-1,2a-diazaacenaphthylene-7-carboxylic acid)], in experiment [1], the ΔTm at 100 µM stood at 5.9 °C.
Regarding `CCn1nc(C)cc1C(=O)Nc1nc2cc(C(N)=O)cc3c2n1[C@@H](C/C=C/C[C@H]1COc2cc(C(N)=O)cc4nc(NC(=O)C(C)(C)C)n1c24)CO3` [Example 4, (S)-3-((E)-4-((S)-7-carbamoyl-2-(1-ethyl-3-methyl-1H-pyrazole-5-carboxamido)-3,4-dihydro-5-oxa-1,2a-diazaacenaphthylen-3-yl)but-2-en-1-yl)-2-pivalamido-3,4-dihydro-5-oxa-1,2a-diazaacenaphthylene-7-carboxamide], the ΔTm at 100 µM in experiment [1] was 7.5 °C. In experiment [2], this molecule returned an EC50 of 11500 nM.
For `CCn1nc(C)cc1C(=O)Nc1nc2cc(C(N)=O)cc3c2n1[C@@H](CCCC[C@H]1COc2cc(C(N)=O)cc4nc(NC(=O)c5cc(C)nn5CC)n1c24)CO3` [Example 5, (3S,3″S)-3,3″-(butane-1,4-diyl)bis(2-(1-ethyl-3-methyl-1H-pyrazole-5-carboxamido)-3,4-dihydro-5-oxa-1,2a-diazaacenaphthylene-7-carboxamide)], in that order: 9.1 °C and 430 nM.
Take `CCn1nc(C)cc1C(=O)Nc1nc2cc(C(N)=O)cc3c2n1C(CC=CCC1CCCOc2cc(C(N)=O)cc4nc(NC(=O)c5cc(C)nn5CC)n1c24)CCCO3` (centres unmarked) [Example 7, 10,10″-(but-2-ene-1,4-diyl)bis(1-(1-ethyl-3-methyl-1H-pyrazole-5-carboxamido)-7,8,9,10-tetrahydro-6-oxa-2,10a-diazacycloocta[cd]indene-4-carboxamide)]: in experiment [1], the ΔTm at 100 µM came out at 6.2 °C.
Take `CCn1nc(C)cc1C(=O)Nc1nc2cc(C(N)=O)cc3c2n1C(CC=CC[C@H]1COc2cc(C(N)=O)cc4nc(NC(=O)c5cc(C)nn5CC)n1c24)CCCO3` (stereo partly drawn) [Example 8, 10-(4-((S)-7-carbamoyl-2-(1-ethyl-3-methyl-1H-pyrazole-5-carboxamido)-3,4-dihydro-5-oxa-1,2a-diazaacenaphthylen-3-yl)but-2-en-1-yl)-1-(1-ethyl-3-methyl-1H-pyrazole-5-carboxamido)-7,8,9,10-tetrahydro-6-oxa-2,10a-diazacycloocta[cd]indene-4-carboxamide]: in experiment [2], the concentration giving a half-maximal response (EC50) was determined as 6400 nM.
In the case of `CCn1nc(C)cc1C(=O)Nc1nc2cc(C(N)=O)cc3c2n1[C@@H](C/C=C/C[C@H]1CN(C)c2cc(C(N)=O)cc4nc(NC(=O)c5cc(C)nn5CC)n1c24)CN3C` [Example 9, (4S,4′S)-4,4′-((E)-but-2-ene-1,4-diyl)bis(2-(1-ethyl-3-methyl-1H-pyrazole-5-carboxamido)-6-methyl-5,6-dihydro-4H-imidazo[1,5,4-de]quinoxaline-8-carboxamide)], the results for the EC50 in experiment [2] and in experiment [3] were 54 nM and 0.14 µM, respectively.
For `CCn1nc(C)cc1C(=O)Nc1nc2cc(C(N)=O)cc3c2n1[C@@H](C/C=C\C[C@H]1CN(C)c2cc(C(N)=O)cc4nc(NC(=O)c5cc(C)nn5CC)n1c24)CN3C` [Example 10, (4S,4′S)-4,4′-((Z)-but-2-ene-1,4-diyl)bis(2-(1-ethyl-3-methyl-1H-pyrazole-5-carboxamido)-6-methyl-5,6-dihydro-4H-imidazo[1,5,4-de]quinoxaline-8-carboxamide)], in that order: 12 nM and 0.05 µM.
For `CCn1nc(C)cc1C(=O)Nc1nc2cc(C(N)=O)cc3c2n1[C@@H](C/C=C/C[C@H]1CN(CCCOC)c2cc(C(N)=O)cc4nc(NC(=O)c5cc(C)nn5CC)n1c24)CN3CCCOC` [Example 11, (4S,4′S)-4,4′-((E)-but-2-ene-1,4-diyl)bis(2-(1-ethyl-3-methyl-1H-pyrazole-5-carboxamido)-6-(3-methoxypropyl)-5,6-dihydro-4H-imidazo[1,5,4-de]quinoxaline-8-carboxamide)], in that order: 150 nM and 0.19 µM.
For `CCn1nc(C)cc1C(=O)Nc1nc2cc(C(N)=O)cc3c2n1[C@@H](C/C=C\C[C@H]1CN(CCCOC)c2cc(C(N)=O)cc4nc(NC(=O)c5cc(C)nn5CC)n1c24)CN3CCCOC` [Example 12, (4S,4′S)-4,4′-((Z)-but-2-ene-1,4-diyl)bis(2-(1-ethyl-3-methyl-1H-pyrazole-5-carboxamido)-6-(3-methoxypropyl)-5,6-dihydro-4H-imidazo[1,5,4-de]quinoxaline-8-carboxamide)], in that order: 140 nM and 0.058 µM.
Molecule `CCn1nc(C)cc1C(=O)Nc1nc2cc(C(N)=O)cc3c2n1[C@@H](C/C=C/C[C@H]1CN(CCCOC)c2cc(C(N)=O)cc4nc(NC(=O)c5cc(C)nn5CC)n1c24)CN3C` [Example 13, (S)-4-((E)-4-((S)-8-carbamoyl-2-(1-ethyl-3-methyl-1H-pyrazole-5-carboxamido)-6-(3-methoxypropyl)-5,6-dihydro-4H-imidazo[1,5,4-de]quinoxalin-4-yl)but-2-en-1-yl)-2-(1-ethyl-3-methyl-1H-pyrazole-5-carboxamido)-6-methyl-5,6-dihydro-4H-imidazo[1,5,4-de]quinoxaline-8-carboxamide] gave an EC50 in experiment [2] of 180 nM. In other words, the sub-micromolar range.
The same measure, in the same setting: next, `CCn1nc(C)cc1C(=O)Nc1nc2cc(C(N)=O)cc3c2n1[C@@H](C/C=C\C[C@H]1CN(CCCOC)c2cc(C(N)=O)cc4nc(NC(=O)c5cc(C)nn5CC)n1c24)CN3C` [Example 14, (S)-4-((Z)-4-((S)-8-carbamoyl-2-(1-ethyl-3-methyl-1H-pyrazole-5-carboxamido)-6-(3-methoxypropyl)-5,6-dihydro-4H-imidazo[1,5,4-de]quinoxalin-4-yl)but-2-en-1-yl)-2-(1-ethyl-3-methyl-1H-pyrazole-5-carboxamido)-6-methyl-5,6-dihydro-4H-imidazo[1,5,4-de]quinoxaline-8-carboxamide]: 60 nM.

These data come from patent publication US20220056044A1, “TRICYCLIC COMPOUNDS AS STING AGONISTS, AND PREPARATION METHODS AND MEDICINAL USES THEREOF” (Jiangsu Hengrui Medicine Co., Ltd., priority 2018, published 2022).
